#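 Test compounds were applied to cells in 96-well plates for 48 hours at 5 doses. Here, GI50 denotes the concentration required for 50% inhibition of growth.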 Activity calls are given as the source filed them. No stated cut-off is given here; in the data, active = GI50 up to about 1.1 µM and inactive = higher.
# Experiments:
# Assay in all cases: inhibition of tumour cell growth, NCI panel, 48 h
# Hs-578T = test system: Hs-578T
# HT-29 = test system: HT-29
# PC-3 = test system: PC-3
# NCI/ADR-RES = test system: NCI/ADR-RES
# OVCAR-3 = test system: OVCAR-3
# U-251 = test system: U-251
# HCT-15 = test system: HCT-15
# RXF 393 = test system: RXF 393
# NCI-H460 = test system: NCI-H460
# SK-MEL-28 = test system: SK-MEL-28
# ACHN = test system: ACHN
# RPMI-8226 = test system: RPMI-8226
# SK-MEL-2 = test system: SK-MEL-2
# CAKI-1 = test system: CAKI-1
# HCT-116 = test system: HCT-116
# IGROV-1 = test system: IGROV-1
# T47D = test system: T47D
# SNB-19 = test system: SNB-19
# HL-60 = test system: HL-60
# SR = test system: SR
# HCC 2998 = test system: HCC 2998
# HOP-62 = test system: HOP-62
# SF-539 = test system: SF-539
# NCI-H23 = test system: NCI-H23
# BT-549 = test system: BT-549
# DU-145 = test system: DU-145
# SN12C = test system: SN12C
# 786-0 = test system: 786-0
# SF-268 = test system: SF-268
# UO-31 = test system: UO-31
# K562 = test system: K562
# NCI-H226 = test system: NCI-H226
# LOX IMVI = test system: LOX IMVI
# M14 = test system: M14
# SK-MEL-5 = test system: SK-MEL-5
# CCRF-CEM = test system: CCRF-CEM
# MDA-MB-231 = test system: MDA-MB-231
# OVCAR-4 = test system: OVCAR-4
# TK-10 = test system: TK-10
# UACC-257 = test system: UACC-257
# Malme-3M = test system: Malme-3M
# NCI-H522 = test system: NCI-H522
# SF-295 = test system: SF-295
# A549 = test system: A549
# MDA-MB-435 = test system: MDA-MB-435
# SW-620 = test system: SW-620
# OVCAR-8 = test system: OVCAR-8
# HOP-92 = test system: HOP-92
# MCF7 = test system: MCF7
# COLO 205 = test system: COLO 205
# OVCAR-5 = test system: OVCAR-5
# UACC-62 = test system: UACC-62
# MOLT-4 = test system: MOLT-4
# A498 = test system: A498
# EKVX = test system: EKVX
# KM12 = test system: KM12
# SK-OV-3 = test system: SK-OV-3
# SNB-75 = test system: SNB-75
smiles,measurement,setting,value
COc1ccc(C2=C3SC=c4ccccc4=C3ON=C2c2ccccc2)cc1,GI50,Hs-578T,> 100 µM (inactive)
same,GI50,HT-29,> 100 µM (inactive)
same,GI50,PC-3,> 100 µM (inactive)
same,GI50,NCI/ADR-RES,> 100 µM (inactive)
same,GI50,OVCAR-3,94.8 µM (inactive)
same,GI50,U-251,> 100 µM (inactive)
same,GI50,HCT-15,> 100 µM
same,GI50,RXF 393,> 100 µM (inactive)
same,GI50,NCI-H460,> 100 µM (inactive)
same,GI50,SK-MEL-28,> 100 µM (inactive)
same,GI50,ACHN,> 100 µM (inactive)
same,GI50,RPMI-8226,69.2 µM (inactive)
same,GI50,SK-MEL-2,> 100 µM (inactive)
same,GI50,CAKI-1,> 100 µM (inactive)
same,GI50,HCT-116,57.4 µM (inactive)
same,GI50,IGROV-1,> 100 µM (inactive)
same,GI50,T47D,25.4 µM (inactive)
same,GI50,SNB-19,> 100 µM (inactive)
same,GI50,HL-60,> 100 µM (inactive)
same,GI50,SR,42 µM (inactive)
same,GI50,HCC 2998,> 100 µM (inactive)
same,GI50,HOP-62,> 100 µM (inactive)
same,GI50,SF-539,> 100 µM (inactive)
same,GI50,NCI-H23,> 100 µM (inactive)
same,GI50,BT-549,> 100 µM (inactive)
same,GI50,DU-145,> 100 µM (inactive)
same,GI50,SN12C,> 100 µM (inactive)
same,GI50,786-0,> 100 µM (inactive)
same,GI50,SF-268,> 100 µM (inactive)
same,GI50,UO-31,> 100 µM (inactive)
same,GI50,K562,22.9 µM (inactive)
same,GI50,NCI-H226,> 100 µM (inactive)
same,GI50,LOX IMVI,> 100 µM (inactive)
same,GI50,M14,> 100 µM (inactive)
same,GI50,SK-MEL-5,> 100 µM (inactive)
same,GI50,CCRF-CEM,84.3 µM (inactive)
same,GI50,MDA-MB-231,> 100 µM (inactive)
same,GI50,OVCAR-4,> 100 µM (inactive)
same,GI50,TK-10,> 100 µM (inactive)
same,GI50,UACC-257,> 100 µM (inactive)
same,GI50,Malme-3M,> 100 µM (inactive)
same,GI50,NCI-H522,53.8 µM (inactive)
same,GI50,SF-295,> 100 µM (inactive)
same,GI50,A549,> 100 µM (inactive)
same,GI50,MDA-MB-435,> 100 µM (inactive)
same,GI50,SW-620,> 100 µM (inactive)
same,GI50,OVCAR-8,> 100 µM (inactive)
same,GI50,HOP-92,68.1 µM (inactive)
same,GI50,MCF7,> 100 µM (inactive)
same,GI50,COLO 205,> 100 µM (inactive)
same,GI50,OVCAR-5,> 100 µM (inactive)
same,GI50,UACC-62,> 100 µM (inactive)
same,GI50,MOLT-4,37.2 µM (inactive)
same,GI50,A498,> 100 µM (inactive)
same,GI50,EKVX,> 100 µM (inactive)
same,GI50,KM12,> 100 µM (inactive)
Cn1c(-c2cccc(N)c2)[n+](C)c2ccccc21,GI50,Hs-578T,64.6 µM (inactive)
same,GI50,HT-29,> 100 µM (inactive)
same,GI50,PC-3,> 100 µM (inactive)
same,GI50,NCI/ADR-RES,> 100 µM (inactive)
same,GI50,OVCAR-3,> 100 µM (inactive)
same,GI50,U-251,> 10 µM (inactive)
same,GI50,HCT-15,> 100 µM
same,GI50,RXF 393,> 100 µM (inactive)
same,GI50,NCI-H460,> 100 µM (inactive)
same,GI50,SK-MEL-28,> 100 µM (inactive)
same,GI50,ACHN,> 100 µM (inactive)
same,GI50,RPMI-8226,> 100 µM (inactive)
same,GI50,SK-MEL-2,> 100 µM (inactive)
same,GI50,CAKI-1,> 100 µM (inactive)
same,GI50,HCT-116,> 100 µM (inactive)
same,GI50,IGROV-1,> 100 µM (inactive)
same,GI50,T47D,> 100 µM (inactive)
same,GI50,SNB-19,60.3 µM (inactive)
same,GI50,HL-60,36.1 µM (inactive)
same,GI50,SR,> 100 µM (inactive)
same,GI50,HCC 2998,> 100 µM (inactive)
same,GI50,HOP-62,> 100 µM (inactive)
same,GI50,SF-539,> 100 µM (inactive)
same,GI50,NCI-H23,48.3 µM (inactive)
same,GI50,BT-549,> 100 µM (inactive)
same,GI50,DU-145,> 100 µM (inactive)
same,GI50,786-0,> 100 µM (inactive)
same,GI50,SF-268,> 100 µM (inactive)
same,GI50,UO-31,> 100 µM (inactive)
same,GI50,K562,> 100 µM (inactive)
same,GI50,NCI-H226,> 100 µM (inactive)
same,GI50,LOX IMVI,> 100 µM (inactive)
same,GI50,M14,> 100 µM (inactive)
same,GI50,SK-OV-3,> 100 µM (inactive)
same,GI50,SK-MEL-5,57.3 µM (inactive)
same,GI50,CCRF-CEM,53.1 µM (inactive)
same,GI50,MDA-MB-231,> 100 µM (inactive)
same,GI50,OVCAR-4,> 100 µM (inactive)
same,GI50,TK-10,> 100 µM (inactive)
same,GI50,UACC-257,> 100 µM (inactive)
same,GI50,Malme-3M,> 100 µM (inactive)
same,GI50,SNB-75,> 100 µM (inactive)
same,GI50,SF-295,> 100 µM (inactive)
same,GI50,A549,40.9 µM (inactive)
same,GI50,MDA-MB-435,> 100 µM (inactive)
same,GI50,SW-620,> 100 µM (inactive)
same,GI50,OVCAR-8,> 100 µM (inactive)
same,GI50,HOP-92,> 100 µM (inactive)
same,GI50,MCF7,> 100 µM (inactive)
same,GI50,COLO 205,38.7 µM (inactive)
same,GI50,OVCAR-5,> 100 µM (inactive)
same,GI50,UACC-62,> 100 µM (inactive)
same,GI50,MOLT-4,> 100 µM (inactive)
same,GI50,A498,22.4 µM (inactive)
same,GI50,EKVX,> 100 µM (inactive)
same,GI50,KM12,> 100 µM (inactive)

# Reference: ChEMBL document CHEMBL1201862, “PubChem BioAssay data set” (2004)
